Assay results as given in patent publication US20070071773A1, “Compositions and methods for the treatment and prophylaxis of infections caused by gram positive bacteria” (priority 2002, published 2007).

Columns and labels:
[1] = test system: C5a peptidase; assay: Surface expressed C5a peptidase of GAS in the absence and presence of SilCR; assay type: cell-based, Group A Streptococcus (GAS); conditions: absence vs presence of SilCR (not shown)
[2] = test system: GAS strain JS95; assay: Murine model of invasive soft-tissue infection: survival and skin lesions after subcutaneous challenge with JS95; assay type: in vivo, Group A Streptococcus (GAS)
Description: The ability of GAS to cause lethal infection in ten-gram BALB/c female mice (Harlan Laboratories, Jerusalem, Israel) was assessed as described before [Ravins, M. et al. J. Infect. Dis. 182:1702-11 (2000)]. Briefly, 10^8 CFU of log-phase bacteria were washed twice in PBS, resuspended in 0.1 ml PBS and injected subcutaneously into the back of a mouse. The number of CFU injected was verified for each experiment by plating bacteria on THY-blood agar plates and counting. Each group contained 8 to 10 mice that were observed daily for death and changes in the lesions' properties such as size and depth, or were sacrificed at different times after inoculation for histopathological assessment. To determine the presence of bacteria in skin and spleen, mice were sacrificed; a wide area surrounding the skin lesions was excised, spleens were removed, and organs were homogenized in 10 or 1 ml of sterile PBS, respectively. Aliquots were plated and streptococcal colonies were counted. The Institutional Ethics Committee for animal care approved all animal procedures (approval number MD 79.17-4).
Therefore, the inventors next tested the peptide effect on virulence of the highly invasive strain of the invention. A 17 amino acid peptide, corresponding to the amino acid sequence encoded by the SilCR ORF, was synthesized and purified. Mice were challenged with the highly virulent strain (JS95) in the presence and absence of the 17 amino acid synthetic peptide DIFKLVIDHISMKARKK (also denoted by SEQ ID NO: 32), of a 70% purity.
The ability of the peptide to protect mice inoculated with increasing doses of the bacteria ranging from 10^7 to 10^10 CFU was next examined. […] Mice challenged with a low dose of 10^7 CFU, in the absence of the peptide, died within 4 days after challenge. […] Results were consistent even after 21 days of follow up (data not shown).
Mice were injected under the surface of the skin with 2×10^8 of M14 GAS strain, JS95, without (FIG. 8A) or with 25 μg of the highly purified (90% purity) 17 amino acid peptide (SEQ ID NO: 32) (FIG. 8B).
In order to examine the ability of the 17 amino acid peptide (SEQ ID NO: 32) to protect against bacterial challenge, mice were injected with 200 μg of this peptide 24 hours prior to bacterial challenge. As shown by FIG. 9, the 17 amino acid peptide protects 50% of the mice when injected 24 hours before bacterial challenge of 4×10^8 CFU of JS95 strain.

[3] = test system: JS95; assay: IL-8 proteolytic activity of supernatant of JS95 grown in the presence of SilCR; assay type: cell-based, Group A Streptococcus (GAS); conditions: JS95 grown in the presence of SilCR (25 then 50 μg/ml); FIG. 15A
Description: (§1) […] was grown in the absence and presence of SilCR (50 μg/ml). IL-8 was incubated with the indicated supernatant fractions and then subjected to 18% SDS-PAGE. The separated protein bands were electro-transferred to a nitrocellulose membrane. Anti-IL-8 antibody and a secondary antibody conjugated to horseradish peroxidase were used to detect IL-8. The number of the lane represents incubation of IL-8 with: 1, DMEM+FCS (control); 2, JS95 supernatant; 3, JS95 supernatant grown in the presence of SilCR; 4, JS95 supernatant, pretreated with pefabloc SC; 5, supernatant of JS95 grown in the absence of SilCR, then 50 μg/ml of SilCR was added to the degradation assay.
15A The column numbers represent the ELISA results after incubation of IL-8 with: 1, DMEM+FCS (control); and the supernatants of: 2, JS95; 3, JS95 grown in the presence of SilCR; 4, JS95 pretreated with aprotenin; 5, JS95 pretreated with soybean trypsin inhibitor; 6, JS95 pretreated with benzamidine. The background of the ELISA assay (0.08±0.004) was subtracted from the shown results. The data represent the mean ± SD, of three separate experiments. […]
(§2) C. Proteolysis of chemokines was determined by ELISA and Dot-blot. IL-8 content was quantified by ELISA using the Quantikine kit for determination of human IL-8 (R&D Systems, Minneapolis, Minn.) according to the manufacturer's instructions.

[4] = test system: M3 strain; assay: Murine NF model: lesions after challenge with an M3 strain; assay type: in vivo, Group A Streptococcus (GAS); conditions: SilCR injected together with an M3 strain (data not shown)
[5] = test system: trypsin-like GAS protease; assay: Degradation of IL-8 by JS95 supernatant (Western blot, ELISA); assay type: biochemical, Group A Streptococcus (GAS); conditions: supernatant of JS95 grown without SilCR, 50 μg/ml SilCR added to the assay; FIG. 14
Description: as §1
15A The column numbers represent the ELISA results after incubation of IL-8 with: 1, DMEM+FCS (control); and the supernatants of: 2, JS95; 3, JS95 grown in the presence of SilCR; 4, JS95 pretreated with aprotenin; 5, JS95 pretreated with soybean trypsin inhibitor; 6, JS95 pretreated with benzamidine. The background of the ELISA assay (0.08±0.004) was subtracted from the shown results. The data represent the mean ± SD, of three separate experiments.
A. Cell culture of JS95 strain was grown in THY to an OD600 of 0.2. To determine the effect of SilCR on chemokine proteolysis, the culture was split into two equal fractions, of which one received SilCR (25 μg/ml). Both fractions were further incubated until they reached an OD600 of 0.3. Bacteria were washed twice with sterile PBS and once with DMEM containing 10% FCS. The washed pellets were re-suspended in DMEM supplemented with FCS to their original volumes. SilCR (50 μg/ml) was added to the fraction that was grown in the presence of SilCR, and the two fractions were further incubated for 1 h at 37° C. Supernatants were collected after centrifugation. The proteolysis reaction contained: 0.08 ml of each supernatant, 100 ng of recombinant human IL-8/CXCL8 (R&D systems, Minneapolis, Minn.) or 30 ng of recombinant murine MIP-2 (R& D systems, Minneapolis, Minn.), 20 mM MOPS pH=7.2 in a final volume of 0.1 ml. The reaction was conducted for 1 h at 37° C., and stopped by boiling for 1 min.
B. For testing protease inhibitors, the supernatants were pre-incubated with the inhibitor for 30 min at 37° C., followed by the proteolysis reaction. The following concentrations of inhibitors were used: 4 mM pefabloc SC; 0.5 mM PMSF; 0.3 μM aprotinin; 1 mM benzamidine; 100 μg/ml soybean trypsin inhibitor (STI).
as §2

[6] = peptide of 90% purity mixed with 10^8 CFU JS95, subcutaneous, FIG. 6

## DIFKLVIDHISMKARKK (SilCR peptide) [17 amino acid synthetic peptide, predicted mature form of the pheromone peptide encoded by the SilCR ORF; used at 70% or 90% purity]
[1]
  amount of surface expressed C5a peptidase: did not observe any change
[2]; 3 μg of the 90% purified peptide, JS95 challenge as high as 10^10 CFU, FIG. 16A
  protection of mice (survival): protected mice
[2]; 25 μg peptide (90% purity) with 2×10^8 JS95 under the surface of the skin, FIG. 8
  survival of mice: all mice of this group survived
[2]; 25 μg peptide (90% purity) with 2×10^8 JS95 under the surface of the skin, FIG. 8B, 8D
  skin lesion: small abscess surrounded by a normal skin
[2]; 100 μg peptide (70% purity) injected together with 10^7 CFU JS95, FIG. 5
  protection of mice (survival): partial protection
[2]; 200 μg peptide (70% pure) injected 24 hours before challenge with 4×10^8 CFU JS95, FIG. 9
  mice protected: 50%
[2]; 200 μg peptide (70% pure), challenge with 10^7 and up to 10^9 CFU JS95, FIG. 7
  protection of mice (survival): completely protected
[2]; 200 μg peptide (70% pure), challenge with 10^10 CFU JS95, FIG. 7
  deaths of mice: only one mouse died
[2]; 200 μg peptide (70% purity) injected together with 10^7 CFU JS95, FIG. 5
  protection of mice (survival): complete protection
[2]; challenged with JS95 and SilCR, compared with JS95 alone, FIG. 8B vs 8A
  lesions of mice: significantly smaller, less necrotic and superficial, with defined borders
[2]; peptide of 70% purity, 10^7 CFU JS95, FIG. 5
  dose dependence of protection of mice: dose-dependent
[2]; [6]
  peptide dose at which the protective effect is evident: 3 µg
  peptide dose reaching plateau level of protection: 50 µg
[2]; simultaneously administered at a distant site
  protection of mice when administered at a site distant to the bacterial challenge: nor did it protect mice
[3]
  IL-8 proteolytic activity of the strain: markedly reduced
[4]
  lesions: reduced lesions
[5]
  IL-8 proteolysis with purified peptide added to the degradation assay: did not itself block IL-8 proteolysis
